From ChEMBL document CHEMBL5550222, “Synthesis and Biological Evaluation of Novel Psidium Meroterpenoid Derivatives against Cisplatin-Induced Acute Kidney Injury” (J Med Chem, 2024)
Calls of active or inactive are those of the source. No cut-off for these calls is given here.

Columns and labels:
HK-2 [1] = experiment: Protection against cisplatin-induced nephrotoxicity in human HK-2 cells assessed as cell viability at 10 uM preincubated with compound for 2 hrs followed by cisplatin induction and measured after 72 hrs by MTT assay (reference value: 37.37 +/- 1.35%); format: functional; conditions: time 74 hrs, read-out: Activity
[2] = Cytotoxicity against human HK-2 cells incubated for 72 hrs by MTT assay; format: toxicity, cell-based
HK-2 [3] = experiment: Protection against cisplatin-induced nephrotoxicity in human HK-2 cells assessed as cell viability at 1 uM preincubated with compound for 2 hrs followed by cisplatin induction and measured after 72 hrs by MTT assay (reference value: 37.37 +/- 1.35%); format: functional; conditions: time 74 hrs, read-out: Activity
HK-2 [4] = experiment: Protection against cisplatin-induced nephrotoxicity in human HK-2 cells assessed as cell viability at 5 uM preincubated with compound for 2 hrs followed by cisplatin induction and measured after 72 hrs by MTT assay (reference value: 37.37 +/- 1.35%); format: functional; conditions: time 74 hrs, read-out: Activity
HK-2 [5] = experiment: Protection against cisplatin-induced nephrotoxicity in human HK-2 cells assessed as cell viability at 10 uM preincubated with compound for 2 hrs followed by cisplatin induction and measured after 72 hrs by MTT assay (reference value: 45.1 +/- 3.2%); format: functional; conditions: time 74 hrs, read-out: Activity
HK-2 [6] = experiment: Protection against cisplatin-induced nephrotoxicity in human HK-2 cells assessed as cell viability at 5 uM preincubated with compound for 2 hrs followed by cisplatin induction and measured after 72 hrs by MTT assay (reference value: 45.1 +/- 3.2%); format: functional; conditions: time 74 hrs, read-out: Activity
HK-2 [7] = experiment: Protection against cisplatin-induced nephrotoxicity in human HK-2 cells at 5 to 10 uM preincubated with compound for 2 hrs followed by cisplatin induction and measured after 72 hrs by MTT assay; format: functional, cell-based; conditions: dose 5-10 µM, time 74.0 hrs
HK-2 [8] = experiment: Protection against cisplatin-induced nephrotoxicity in human HK-2 cells assessed as cell viability at 1 uM preincubated with compound for 2 hrs followed by cisplatin induction and measured after 72 hrs by MTT assay (reference value: 45.1 +/- 3.2%); format: functional; conditions: time 74 hrs, read-out: Activity

| SMILES | viability at 10 µM (HK-2 [1]) | IC50 at 72 h [2] | viability at 1 µM (HK-2 [3]) | viability at 5 µM (HK-2 [4]) | viability at 10 µM (HK-2 [5]) | viability at 5 µM (HK-2 [6]) | Activity (HK-2 [7]) | viability at 1 µM (HK-2 [8]) |
| --- | --- | --- | --- | --- | --- | --- | --- | --- |
| COc1c(C=O)c2c(c(OC)c1C(=O)c1ccccc1)CC(C)C(C)(C)O2 (centres undefined) | 46.2% | > 10 µM | 37.5% | 43.7% | – | – | – | – |
| COc1c2c(c(C(=O)c3ccccc3)c(OC)c1C(=O)O)OC1(C)C[C@H]3[C@@H](CC1C2)C3(C)C (some centres undefined) | 40% | > 10 µM | 30.2% | – | – | – | – | – |
| COc1c2c(c(C(=O)c3ccccc3)c(OC)c1C(=O)O)OC1(C)CCCCC1C2 (centres undefined) | 25.7% | > 10 µM | 38.8% | 35.9% | – | – | – | – |
| COc1c(CN2CCN(C)CC2)c(OC)c(C(=O)c2ccccc2)c2c1CC1CCCCC1(C)O2 (centres undefined) | 25.9% | > 10 µM | 30.4% | 24.2% | – | – | – | – |
| COc1c2c(c(CN3CCN(C)CC3)c(OC)c1C(=O)c1ccccc1)OC1(C)CCCCC1C2 (centres undefined) | 37% | > 10 µM | 40.2% | 37.1% | – | – | – | – |
| CC12CCCC1Cc1c(O)c(C(=O)c3ccccc3)c(O)c(C=O)c1O2 (centres undefined) | 38.6% | > 10 µM | 37.2% | 38.2% | – | – | – | – |
| COc1c2c(c(C(=O)O)c(OC)c1C(=O)c1ccccc1)OC1(C)CCCC1C2 (centres undefined) | 32.6% | > 10 µM | 32.3% | 29.6% | – | – | – | – |
| COc1c2c(c(C(=O)c3ccccc3)c(OC)c1C(=O)O)OC(C)(C)C(C)C2 (centres undefined) | 33.4% | > 10 µM | 33.6% | 30.4% | – | – | – | – |
| COc1c(CN2CCN(C)CC2)c(OC)c(C(=O)c2ccccc2)c2c1CC1CCCC1(C)O2 (centres undefined) | 43.7% | > 10 µM | 38% | 37.5% | – | – | – | – |
| CC12C[C@H]3[C@@H](CC1Cc1c(O)c(C(=O)c4ccccc4)c(O)c(C=O)c1O2)C3(C)C (some centres undefined) | – | 9.31 µM | – | – | – | – | – | – |
| COc1c(CN2CCN(C)CC2)c(OC)c(C(=O)c2ccccc2)c2c1CC1C[C@@H]3[C@H](CC1(C)O2)C3(C)C (some centres undefined) | 18.5% | > 10 µM | 39.9% | 40.1% | – | – | – | – |
| COc1c(C=O)c2c(c(OC)c1C(=O)c1ccccc1)CC1C[C@@H]3[C@H](CC1(C)O2)C3(C)C (some centres undefined) | 35.5% | > 10 µM | 30.1% | 30.8% | – | – | – | – |
| CC12CCCCC1Cc1c(O)c(C(=O)c3ccccc3)c(O)c(C=O)c1O2 (centres undefined) | 38% | > 10 µM | 34.8% | 39.3% | – | – | – | – |
| COc1c(C=O)c2c(c(OC)c1C(=O)c1ccccc1)CC1CCCC1(C)O2 (centres undefined) | 30.8% | > 10 µM | 37.4% | 33.4% | – | – | – | – |
| CC1Cc2c(O)c(C=O)c(O)c(C(=O)c3ccccc3)c2OC1(C)C (centres undefined) | 47% | > 10 µM | 39.9% | 43.6% | – | – | – | – |
| COc1c(C=O)c(OC)c(C(=O)c2ccccc2)c2c1CC1CCCCC1(C)O2 (centres undefined) | 30.1% | > 10 µM | 35.3% | 34.4% | – | – | – | – |
| CC12C[C@H]3[C@@H](CC1Cc1c(O)c(C=O)c(O)c(C(=O)c4ccccc4)c1O2)C3(C)C (some centres undefined) | – | 7.81 µM | – | – | – | – | – | – |
| COc1c(CO)c2c(c(OC)c1C(=O)c1ccccc1)CC1CC/C(C)=C/CC(C)(C)/C=C/CC1(C)O2 (centres undefined) | – | > 10 µM | – | – | 83.3% | 73.6% | Active | 51.2% |
| CC1Cc2c(O)c(C(=O)c3ccccc3)c(O)c(C=O)c2OC1(C)C (centres undefined) | 28.1% | > 10 µM | 37.7% | 33.2% | – | – | – | – |
| COc1c(C=O)c(OC)c(C(=O)c2ccccc2)c2c1CC1CCCC1(C)O2 (centres undefined) | 49.4% | > 10 µM | 38.2% | 44.9% | – | – | – | – |
| COc1c(CO)c(OC)c(C(=O)c2ccccc2)c2c1CC1C[C@@H]3[C@H](CC1(C)O2)C3(C)C (some centres undefined) | 59.2% | > 10 µM | 36% | 43.1% | – | – | – | – |
| COc1c(CO)c2c(c(OC)c1C(=O)c1ccccc1)CC1CCCC1(C)O2 (centres undefined) | 45.4% | > 10 µM | 34.9% | 37.5% | – | – | – | – |
| COc1c2c(c(C(=O)O)c(OC)c1C(=O)c1ccccc1)OC1(C)C/C=C/C(C)(C)C/C=C(\C)CCC1C2 (centres undefined) | – | > 10 µM | – | – | 68.2% | 64.4% | Active | 48.2% |

| SMILES | viability at 10 µM (HK-2 [1]) | IC50 at 72 h [2] | viability at 1 µM (HK-2 [3]) | viability at 5 µM (HK-2 [4]) | viability at 10 µM (HK-2 [5]) | viability at 5 µM (HK-2 [6]) | Activity (HK-2 [7]) | viability at 1 µM (HK-2 [8]) |
| --- | --- | --- | --- | --- | --- | --- | --- | --- |
| COc1c(CN2CCN(C)CC2)c(OC)c(C(=O)c2ccccc2)c2c1CC(C)C(C)(C)O2 (centres undefined) | 38.9% | > 10 µM | 37.2% | 39.2% | – | – | – | – |
| COc1c(CO)c2c(c(OC)c1C(=O)c1ccccc1)CC1CCCCC1(C)O2 (centres undefined) | 36.9% | > 10 µM | 37.7% | 41.8% | – | – | – | – |
| CC12CCCC1Cc1c(O)c(C=O)c(O)c(C(=O)c3ccccc3)c1O2 (centres undefined) | 51.7% | > 10 µM | 41.5% | 49.6% | – | – | Active | – |
| C/C1=C\CC(C)(C)/C=C/CC2(C)Oc3c(c(O)c(C=O)c(O)c3C(=O)c3ccccc3)CC2CC1 (centres undefined) | – | > 10 µM | – | – | 67.1% | 70.2% | – | 60.3% |
| COc1c2c(c(C(=O)c3ccccc3)c(OC)c1C(=O)O)OC1(C)CCCC1C2 (centres undefined) | 31.8% | > 10 µM | 37.2% | 35.2% | – | – | – | – |
| COc1c2c(c(C(=O)O)c(OC)c1C(=O)c1ccccc1)OC(C)(C)C(C)C2 (centres undefined) | 32% | > 10 µM | 37.8% | 28.9% | – | – | – | – |
| C/C1=C\CC(C)(C)/C=C/CC2(C)Oc3c(C=O)c(O)c(C(=O)c4ccccc4)c(O)c3CC2CC1 (centres undefined) | – | 7.72 µM | – | – | 42.7% | 66.8% | – | 61.1% |
| COc1c2c(c(CN3CCN(C)CC3)c(OC)c1C(=O)c1ccccc1)OC(C)(C)C(C)C2 (centres undefined) | 38.2% | > 10 µM | 39.7% | 33% | – | – | – | – |
| COc1c(CN2CCN(C)CC2)c(OC)c(C(=O)c2ccccc2)c2c1CC1CC/C(C)=C/CC(C)(C)/C=C/CC1(C)O2 (centres undefined) | – | 9.1 µM | – | – | 47.8% | 57.9% | – | 46.3% |
| COc1c(C=O)c2c(c(OC)c1C(=O)c1ccccc1)CC1CCCCC1(C)O2 (centres undefined) | 44.9% | > 10 µM | 34.1% | 35.2% | – | – | – | – |
| COc1c2c(c(C(=O)O)c(OC)c1C(=O)c1ccccc1)OC1(C)CCCCC1C2 (centres undefined) | 28% | > 10 µM | 38.2% | 30.7% | – | – | – | – |
| COc1c(CO)c(OC)c(C(=O)c2ccccc2)c2c1CC(C)C(C)(C)O2 (centres undefined) | 34.2% | > 10 µM | 38.3% | 31.4% | – | – | – | – |
| COc1c(C=O)c(OC)c(C(=O)c2ccccc2)c2c1CC(C)C(C)(C)O2 (centres undefined) | 43.5% | > 10 µM | 26.8% | 30.4% | – | – | – | – |
| COc1c2c(c(CN3CCN(C)CC3)c(OC)c1C(=O)c1ccccc1)OC1(C)C[C@H]3[C@@H](CC1C2)C3(C)C (some centres undefined) | 40.8% | > 10 µM | 37.5% | 41.9% | – | – | – | – |
| COc1c(CO)c(OC)c(C(=O)c2ccccc2)c2c1CC1CCCCC1(C)O2 (centres undefined) | 44.6% | > 10 µM | 38.8% | 44.3% | – | – | – | – |
| CC12CCCCC1Cc1c(O)c(C=O)c(O)c(C(=O)c3ccccc3)c1O2 (centres undefined) | 42.5% | > 10 µM | 33.6% | 41.3% | – | – | – | – |
| COc1c(CO)c(OC)c(C(=O)c2ccccc2)c2c1CC1CCCC1(C)O2 (centres undefined) | 26.5% | > 10 µM | 35% | 25.9% | – | – | – | – |
| COc1c(C=O)c(OC)c(C(=O)c2ccccc2)c2c1CC1C[C@@H]3[C@H](CC1(C)O2)C3(C)C (some centres undefined) | 39% | > 10 µM | 36.3% | 39.8% | – | – | – | – |
| COc1c2c(c(C(=O)O)c(OC)c1C(=O)c1ccccc1)OC1(C)C[C@H]3[C@@H](CC1C2)C3(C)C (some centres undefined) | 25.4% | > 10 µM | 31.5% | 21.6% | – | – | – | – |
| COc1c(CO)c2c(c(OC)c1C(=O)c1ccccc1)CC1C[C@@H]3[C@H](CC1(C)O2)C3(C)C (some centres undefined) | – | 6.42 µM | – | – | – | – | – | – |
| COc1c2c(c(CN3CCN(C)CC3)c(OC)c1C(=O)c1ccccc1)OC1(C)CCCC1C2 (centres undefined) | 38.3% | > 10 µM | 36.4% | 39.4% | – | – | – | – |
| COc1c(CO)c2c(c(OC)c1C(=O)c1ccccc1)CC(C)C(C)(C)O2 (centres undefined) | 48.4% | > 10 µM | 40.1% | 45.6% | – | – | Active | – |
